# Source: patent US11744859B2, “Compositions and methods for parenteral administration of therapeutic agents” (EpicentRx, Inc., priority 2017, dated 2023)
# What was measured:
# [1] = in vivo; cited from earlier work
# sepsis model mice (CLP) = assay: CLP sepsis model mice: survival and live bacterial count in blood; assay type: in vivo, BALB/c mice; details: 24 hour blood samples from septic mice; 25 mg/kg
# Description: Sepsis model: twenty BALB/c mice (Jackson Labs; 6-8 weeks) were made septic by CLP. Briefly, mice were anesthetized isoflurane (5% induction and 2% maintenance), and subjected to laparotomy. The cecum was exteriorized and ligated distal to the ileocecal valve without causing intestinal obstruction. The cecum was then punctured twice with either a 21 gauge needle, and stool was gently extruded. Lastly, the abdomen was closed 1 mL of saline was injected.
# [2] = test system: human colorectal HT-29 cancer cells; details: 5 mg/kg, twice a week for three weeks
# Source text: In this example, human colorectal HT-29 cancer cells will be xenografted to mice.
# [3] = test system: MCF7/Taxol (Taxol resistance line); assay: orthotopically implanted MCF7/Taxol human breast carcinoma in mice, tumor volume; assay type: in vivo, athymic mice (nu/nu); details: either 10 mg/kg or 30 mg/kg, twice per week
# Description: (§1) 6-week-old-female athymic mice (nu/nu) were implanted orthotopically with 1×10^7 cells/mL human breast carcinoma cells MCF7 or MCF/Taxol (Taxol resistance line) into their mammary fat pad. […] The treatments started when tumors were 100 mm^3. The paclitaxel blood mixes were prepared by incubating whole blood with paclitaxel and an anticoagulant (CPD) for 30 minutes.
# [4] = test system: human breast carcinoma cells MCF7; assay: orthotopically implanted MCF7 human breast carcinoma in mice, tumor volume; assay type: in vivo, athymic mice (nu/nu); details: either 10 mg/kg or 30 mg/kg, twice per week
# Description: as §1
# [5] = test system: human lung cancer cells A549; assay: xenografted A549 lung tumor in mice, tumor volume; assay type: in vivo; details: 50 mg/kg, twice in one week
# Description: FIG. 1 depicts activity of control, carboplatin (Carbo, 50 mg/kg), and whole blood mixed with carboplatin (Blood-mix-Carbo, either 50 mg/kg or 100 mg/kg) in treating xenografted A549 lung tumor, as measured by tumor volume after each treatment.
# In this example, human lung cancer cells A549 were xenografted to mice.
# [6] = test system: human HT-29 colorectal cancer cells; assay: xenografted HT-29 colorectal tumor in mice, tumor volume; assay type: in vivo; details: 12 mg/kg, one time
# Description: FIG. 5 depicts activity of control, oxaliplatin (L-OHP, 12 mg/kg), and whole blood mixed with oxaliplatin (Blood-mix-L-OHP, either 12 mg/kg or 24 mg/kg) in treating xenografted HT-29 colorectal tumor, as measured by tumor volume over time (0-40 days) after each treatment.
smiles,measurement,setting,value
CC[C@@]1(O)C(=O)OCc2c1cc1n(c2=O)Cc2cc3c(CN(C)C)c(O)ccc3nc2-1 [Topotecan],elimination time of the drug,[1],2 to 3 h
O=P1(NCCCl)OCCCN1CCCl (stereo not drawn) [ifosfamide],elimination time of the drug,[1],7 to 15 h
C[C@@H](O)[C@H]1C(=O)N2C(C(=O)O)=C(SCCN=CN)C[C@H]12 [imipenem],live bacterial count,sepsis model mice (CLP),7.4±0.45 log CFU/mL
COc1cccc2c1C(=O)c1c(O)c3c(c(O)c1C2=O)C[C@@](O)(C(=O)CO)C[C@@H]3O[C@H]1C[C@H](N)[C@H](O)[C@H](C)O1 [doxorubicin],tumor volume compared to control,[2],tumor volume is reduced
CC(=O)O[C@H]1C(=O)[C@@]2(C)[C@H]([C@H](OC(=O)c3ccccc3)[C@]3(O)C[C@H](OC(=O)[C@H](O)[C@@H](NC(=O)c4ccccc4)c4ccccc4)C(C)=C1C3(C)C)[C@]1(OC(C)=O)CO[C@@H]1C[C@@H]2O [paclitaxel],tumor volume compared to control,[3],tumor volume was reduced
same,tumor volume compared to control,[4],tumor volume was reduced
N.N.O=C([O-])C1(C(=O)[O-])CCC1.[Pt+2] [carboplatin],tumor volume compared to control,[5],tumor volume was reduced
O=P1(N(CCCl)CCCl)NCCCO1 (stereo not drawn) [Cyclophosphamide],elimination time of the drug,[1],3 to 12 h
O=C1[O][Pt]2([NH][C@@H]3CCCC[C@H]3[NH]2)[O]C1=O [oxaliplatin],tumor volume compared to control,[6],tumor volume was reduced
